Data: US12187684B2, “Benzimidazole derivatives as modulators of retinoid-related orphan receptor gamma (RORγ) and pharmaceutical use thereof” (Jiangsu Hengrui Medicine Co., Ltd., priority 2018, dated 2025)

Key:
[1] = test system: IL-17 production, human PBMC cells; assay: IL-17 production assay using human PBMC; format: cell-based; conditions: human PBMC stimulated by cytostim for 3 days, IL-17 ELISA of supernatant
Procedure, shortened: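 Cryopreserved human PBMCs, 1×10^5 per well in TexMACS, were treated with compound or vehicle (<0.5% DMSO) and stimulated with Cytostim (10 μL/mL) for 3 days at 37 °C. Supernatant IL-17 was measured by ELISA. IC50 was taken from concentration versus percent inhibition.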

RORγ LBD-GST tagged = target: T1, RORγ LBD-GST tagged (Homo sapiens, UniProt P51449); assay: LanthaScreen TR-FRET RORγ coactivator assay; format: biochemical; conditions: Fluorescein-D22 coactivator peptide, 1 hour room temperature
T1 construct: RORγ LBD-GST tagged (Cat No. RORC-114H, Creative Biomart); purchased Creative Biomart RORC-114H
T1 sequence (P51449 269-508 limits assumed): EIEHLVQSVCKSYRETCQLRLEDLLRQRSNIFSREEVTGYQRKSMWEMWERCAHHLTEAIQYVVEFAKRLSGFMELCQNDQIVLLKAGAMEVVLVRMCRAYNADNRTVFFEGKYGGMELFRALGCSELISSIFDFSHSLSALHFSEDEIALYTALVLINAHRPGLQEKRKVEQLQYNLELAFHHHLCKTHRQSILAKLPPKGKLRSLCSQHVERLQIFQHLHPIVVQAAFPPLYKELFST
Procedure, shortened: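 GST-tagged RORγ LBD (25 ng/reaction) was incubated in coregulator buffer D with 5 mM DTT and compound (top 3 μM, 7-fold steps, 7 doses), then with a mix containing 0.6 μM fluorescein-D22 peptide and 8 nM Tb anti-GST antibody. After 1 h at room temperature in the dark, 520/495 nm TR-FRET was read. IC50 came from log concentration versus percent inhibition.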

Compound | IC50 (RORγ LBD-GST tagged) | IC50 ([1]; Homo sapiens, PBMC, 72 h) | IC50 [1]
CC(C)Oc1ccccc1-c1cc2nc(C(CO)c3ccc(S(=O)(=O)CC4CC4)cc3)[nH]c2cc1Cl (centres unmarked) [Example 124, 2-(6-chloro-5-(2-isopropoxyphenyl)-1H-benzo[d]imidazol-2-yl)-2-(4-((cyclopropylmethyl)sulfonyl)phenyl)ethanol] | 0.205 µM | 0.032 µM | –
CCS(=O)(=O)c1ccc(C(CO)c2nc3c(Cl)c(-c4ccccc4OC(F)(F)F)c(Cl)cc3[nH]2)cc1 (centres unmarked) [Example 4, 2-(4,6-dichloro-5-(2-(trifluoromethoxy)phenyl)-1H-benzo[d]imidazol-2-yl)-2-(4-(ethylsulfonyl)phenyl)ethanol] | 0.16 µM | 0.053 µM | –
O=S(=O)(NC1CC1)c1ccc(C(CO)c2nc3c(Cl)c(-c4ccccc4OC(F)(F)F)c(Cl)cc3[nH]2)cc1 (centres unmarked) [Example 123, N-cyclopropyl-4-(1-(4,6-dichloro-5-(2-(trifluoromethoxy)phenyl)-1H-benzo[d]imidazol-2-yl)-2-hydroxyethyl)benzenesulfonamide] | 0.03 µM | 0.058 µM | –
CCS(=O)(=O)c1ccc(C(O)c2nc3c(Cl)c(-c4ccccc4CCC(F)(F)F)c(Cl)cc3[nH]2)cc1 (centres unmarked) [Example 35, (4,6-dichloro-5-(2-(3,3,3-trifluoropropyl)phenyl)-1H-benzo[d]imidazol-2-yl)(4-(ethylsulfonyl)phenyl)methanol] | 0.061 µM | 0.008 µM | –
CCS(=O)(=O)c1ccc(C(CO)c2nc3c(Cl)c(-c4ccccc4OC(F)(F)F)c(Cl)cc3[nH]2)c(F)c1 (centres unmarked) [Example 77, 2-(4,6-dichloro-5-(2-(trifluoromethoxy)phenyl)-1H-benzo[d]imidazol-2-yl)-2-(4-(ethylsulfonyl)-2-fluorophenyl)ethanol] | 0.021 µM | 0.017 µM | –
O=S(=O)(CC1CC1)c1ccc(Cc2nc3cc(Cl)c(N4CCC(F)(F)CC4)c(Cl)c3[nH]2)cc1 [Example 127, 5,7-dichloro-2-(4-((cyclopropylmethyl)sulfonyl)benzyl)-6-(4,4-difluoropiperidin-1-yl)-1H-benzo[d]imidazole] | 0.22 µM | 0.013 µM | –
CC(C)Oc1ccccc1-c1cc2nc(C(CCO)c3ccc(S(=O)(=O)CC4CC4)cc3)[nH]c2cc1Cl (single isomer, unassigned) [the longer retention time of 150 and 151, 3-(6-chloro-5-(2-isopropoxyphenyl)-1H-benzo[d]imidazol-2-yl)-3-(4-((cyclopropylmethyl)sulfonyl)phenyl)propan-1-ol] | 0.026 µM | – | 0.031 µM

Now those with a lower IC50 (RORγ LBD-GST tagged), led by results:

IC50 (RORγ LBD-GST tagged) | Compound | IC50 ([1]; Homo sapiens, PBMC, 72 h) | IC50 [1]
0.018 µM | CCOc1ccccc1-c1c(Cl)cc2nc(C(O)c3ccc(S(=O)(=O)CC4CC4)cc3)[nH]c2c1Cl (centres unmarked) [Example 138, (4-((cyclopropylmethyl)sulfonyl)phenyl)(5,7-dichloro-6-(2-ethoxyphenyl)-1H-benzo[d]imidazol-2-yl)methanol] | 0.009 µM | –
0.013 µM | O=S(=O)(CC1CC1)c1ccc(C(CCO)c2nc3cc(Cl)c(-c4ccccc4OC(F)F)cc3[nH]2)cc1 (centres unmarked) [Example 142, 3-(5-chloro-6-(2-(difluoromethoxy)phenyl)-1H-benzo[d]imidazol-2-yl)-3-(4-((cyclopropylmethyl)sulfonyl)phenyl)propan-1-ol] | 0.028 µM | –
0.011 µM | CC(C)Oc1ccccc1-c1cc2nc(C(CCO)c3ccc(S(=O)(=O)CC4CC4)cc3)[nH]c2cc1Cl (centres unmarked) [Example 144, 3-(5-chloro-6-(2-isopropoxyphenyl)-1H-benzo[d]imidazol-2-yl)-3-(4-((cyclopropylmethyl)sulfonyl)phenyl)propan-1-ol] | 0.023 µM | –
0.01 µM | CCS(=O)(=O)c1ccc(Cc2nc3c(Cl)c(-c4ccccc4OCC(F)(F)F)c(Cl)cc3[nH]2)cc1 [Example 31, 4,6-dichloro-2-(4-(ethylsulfonyl)benzyl)-5-(2-(2,2,2-trifluoroethoxy)phenyl)-1H-benzo[d]imidazole] | 0.011 µM | –
0.006 µM | CC(C)Oc1ccccc1-c1c(Cl)cc2nc(C(CO)c3ccc(S(=O)(=O)CC4CC4)cc3)[nH]c2c1Cl (centres unmarked) [Example 134, 2-(4-((cyclopropylmethyl)sulfonyl)phenyl)-2-(5,7-dichloro-6-(2-isopropoxyphenyl)-1H-benzo[d]imidazol-2-yl)ethanol] | 0.003 µM | –
0.003 µM | O=S(=O)(CC1CC1)c1ccc(C(CCO)c2nc3cc(Cl)c(N4CCC(F)(F)CC4)c(Cl)c3[nH]2)cc1 (single isomer, unassigned) [3-(4-((cyclopropylmethyl)sulfonyl)phenyl)-3-(5,7-dichloro-6-(4,4-difluoropiperidin-1-yl)-1H-benzo[d]imidazol-2-yl)propan-1-ol] | 0.006 µM | –
